Literature values as cited in article PMC10694761 (Cell Reports Medicine, 2023).

How the values were obtained:
[1] = rats
[2] = micromolar concentrations
[3] = humans

Substance: Liraglutide
- half-life of absorption from the s.c. space (t1/2, s.c.) [1]: ~9.6 min
- half-life of elimination from the systemic circulation (t1/2, serum) [1]: ~4.01 h
- self-association state [2]: heptameric structures
- t1/2, serum [3]: ~13 h
